Earlier results as cited in patent publication US20140170287A1, “METHODS FOR PREPARING AND COMPOSITIONS COMPRISING PLANT SEED-BASED OMEGA-3 FATTY ACIDS” (Living Healthy World LLC, priority 2012, published 2014).

Tested on: C-reactive protein (CRP)
Conditions: consumption of ALA in flaxseeds; CRP as marker of the inflammatory status in the cardiovascular system

## CC/C=C\C/C=C\C/C=C\CCCCCCCC(=O)O [ALA, alpha-linolenic acid]
  decrease of blood levels of C-reactive protein (CRP): 10-15%
